24 compounds from ChEMBL document CHEMBL2062405, “Alkaloids from the root of Isatis indigotica” (J Nat Prod, 2012) can be followed below.

Calls of active or inactive are those of the source. The calls are words filed in the database; no cut-off is given here.

One experiment concerns A549. Kind of experiment: Cytotoxicity against human A549 cells at 10 uM after 96 hrs by MTT assay. The format is functional, cell-based.
Another experiment concerns MCF7. Kind of experiment: Cytotoxicity against human MCF7 cells at 10 uM after 96 hrs by MTT assay. The format is functional, cell-based. (In general: Tetrazolium assays rely on reduction of a dye to a coloured formazan, in cell work by metabolically active cells.)
For the next experiment, the system named is Bel-7402. The experiment is described as follows: Cytotoxicity against human Bel7402 cells at 10 uM after 96 hrs by MTT assay. The format is functional, cell-based.
The next experiment deals with KETR3. Kind of experiment: Cytotoxicity against human Ketr3 cells at 10 uM after 96 hrs by MTT assay. The format is functional, cell-based.
Another experiment concerns Human alphaherpesvirus 1. Kind of experiment: Antiviral activity against Herpes simplex virus 1 at 10 uM. The format is functional, organism-based.
Experiment [1] concerns Human immunodeficiency virus 1. The experiment is described as follows: Antiviral activity against HIV1 infected in 293T cells cotransfected with VSV-G at 10 uM after 48 hrs by ELISA. The format is functional, organism-based. A general note: In an ELISA, binding on a coated surface is turned into a signal by an enzyme label.
The next experiment has as its system BGC-823. Kind of experiment: Cytotoxicity against human BGC823 cells at 10 uM after 96 hrs by MTT assay. The format is functional, cell-based.
The test system of another experiment is HCT-8. Kind of experiment: Cytotoxicity against human HCT8 cells at 10 uM after 96 hrs by MTT assay. The format is functional, cell-based.
Experiment [2] in a line: Hepatoprotective activity in rat WB-F344 cells assessed as inhibition of DL-Galactosamine-induced toxicity at 10 uM incubated for 1 hr prior to DL-Galactosamine-challenge measured after 24 hrs by MTT assay. The format is functional.

Turning to `Nc1ccccc1C(=O)O[C@@H]1O[C@H](CO)[C@@H](O)[C@H](O)[C@H]1O`, the outcome (with A549; in the experiment with MCF7; in the experiment with Bel-7402; in the experiment on KETR3; in the experiment on Human alphaherpesvirus 1; in [1]) was inactive. Further, the result in the experiment on BGC-823 and in the experiment with HCT-8 was inactive.
For `COn1cc(CC#N)c2ccccc21`, the outcome (in the experiment with A549; with MCF7; with Bel-7402; in the experiment with KETR3; with Human alphaherpesvirus 1; in [1]) was inactive. The result in the experiment with BGC-823 and with HCT-8 was inactive.
As for `N#CCc1c[nH]c2ccccc12`, the outcome (with A549; with MCF7; in the experiment on Bel-7402; with KETR3; in the experiment with Human alphaherpesvirus 1; in experiment [1]) was inactive. The result in the experiment with BGC-823 and in the experiment on HCT-8 was inactive.
Turning to `O=C1O[C@H]([C@@H](O)CO)[C@@H](O)[C@@]1(O)Cc1c[nH]c2ccccc12`, the outcome (in the experiment on A549; in the experiment with MCF7; in the experiment on Bel-7402; in the experiment with KETR3; with Human alphaherpesvirus 1; in experiment [1]) was inactive. For the same compound, the result with BGC-823 and in the experiment with HCT-8 was inactive.
Turning to `O=C1C[C@]2(O)c3ccccc3N3C(=O)c4ccccc4N1[C@@H]32`, the outcome (in the experiment on A549; with MCF7; with Bel-7402; in the experiment on KETR3; in the experiment with Human alphaherpesvirus 1; in experiment [1]) was inactive. The result in the experiment with BGC-823 and with HCT-8 was inactive.
With `N#C/C=C1/C(=O)Nc2cccc(O)c21`, the result (in the experiment on A549; in the experiment with MCF7; with Bel-7402; in the experiment with KETR3; with Human alphaherpesvirus 1; in [1]) was inactive. Further, the outcome with BGC-823 and in the experiment with HCT-8 was inactive.
For the compound `Oc1ccc2[nH]c(O)cc2c1`, the result (in the experiment on A549; with MCF7; in the experiment on Bel-7402; in the experiment with KETR3; in the experiment on Human alphaherpesvirus 1; in experiment [1]) was inactive. In addition, the outcome in the experiment on BGC-823 and in the experiment on HCT-8 was inactive.
On to `NC(=O)C[C@H]1C(=O)Nc2cccc(O)c21`, for which the result (with A549; in the experiment on MCF7; in the experiment on Bel-7402; with KETR3; in the experiment on Human alphaherpesvirus 1; in experiment [1]) was inactive. In addition, the result with BGC-823 and in the experiment with HCT-8 was inactive.
Consider `OC[C@H]1O[C@@H](Oc2c[nH]c3ccccc23)[C@H](O)[C@@H](O)[C@@H]1O`, for which the outcome (in the experiment with A549; with MCF7; in the experiment on Bel-7402; in the experiment with KETR3; in the experiment on Human alphaherpesvirus 1; in experiment [1]) was inactive. The outcome with BGC-823 and with HCT-8 was inactive.
Turning to `O=C1C[C@@]2(O)c3ccccc3N3C(=O)c4ccccc4N1[C@H]32`, the outcome (in the experiment on A549; with MCF7; with Bel-7402; in the experiment with KETR3; in the experiment on Human alphaherpesvirus 1; in experiment [1]) was inactive. The outcome in the experiment on BGC-823 and in the experiment on HCT-8 was inactive.
For `O=C1/C(=C2\Nc3ccccc3C2=O)Nc2ccccc21`, the outcome (in the experiment on A549; in the experiment with MCF7; in the experiment on Bel-7402; in the experiment with KETR3; in the experiment with Human alphaherpesvirus 1; in experiment [1]) was inactive. The outcome with BGC-823 and with HCT-8 was inactive.
Turning to `C[C@H]1OC2=C(NC1=O)C(=O)OCC2`, the outcome (with A549; in the experiment with MCF7; with Bel-7402; in the experiment with KETR3; with Human alphaherpesvirus 1; in experiment [1]) was inactive. Also, the result in the experiment with BGC-823 and with HCT-8 was inactive.
In the case of `N#CCc1c[nH]c2cc(O[C@@H]3O[C@H](CO)[C@@H](O)[C@H](O)[C@H]3O)ccc12`, the outcome (with A549; in the experiment on MCF7; with Bel-7402; with KETR3; in the experiment with Human alphaherpesvirus 1; in [1]) was inactive. Moreover, the outcome with BGC-823 and in the experiment with HCT-8 was inactive.
For `N#CC[C@@]1(O)C(=O)Nc2ccccc21`, the result (with A549; in the experiment on MCF7; in the experiment on Bel-7402; in the experiment with KETR3; in the experiment on Human alphaherpesvirus 1; in experiment [1]) was inactive. For the same compound, the result in the experiment with BGC-823 and with HCT-8 was inactive.
`O=C1c2ccccc2-n2c1nc1ccccc1c2=O`: the outcome (with A549; with MCF7; with Bel-7402; with KETR3; with Human alphaherpesvirus 1; in experiment [1]) was inactive. Besides, the outcome in the experiment with BGC-823 and in the experiment on HCT-8 was inactive.
As for `COC(=O)c1ccccc1NC(=O)c1c[nH]c2ccccc2c1=O`, the outcome (in the experiment on A549; in the experiment with MCF7; in the experiment on Bel-7402; with KETR3; in the experiment with Human alphaherpesvirus 1; in experiment [1]) was inactive. Moreover, the outcome with BGC-823 and in the experiment with HCT-8 was inactive.
In general, inhibition refers to the share of the control response that was lost under treatment. As for `COC(=O)c1cc(OC)c2c(c1-c1c(CO)cc(OC)c3c1OCO3)OCO2` [BICYCLOL], the inhibition at 10 µM in experiment [2] worked out at 42%.
Still for that read-out and setting: under `O=C1CC2(O)c3ccccc3N3C(=O)c4ccccc4N1C32` (stereo not drawn) stands 47%.
As to `N#CC[C@@]1(O)C(=O)Nc2cccc(O)c21`, the outcome (in the experiment with A549; with MCF7; with Bel-7402; in the experiment on KETR3; with Human alphaherpesvirus 1; in experiment [1]) was inactive. Also, the result with BGC-823 and in the experiment on HCT-8 was inactive.
Turning to `O=C1Nc2ccccc2/C1=C1/Nc2ccccc2C1=O`, the outcome (in the experiment with A549; with MCF7; with Bel-7402; with KETR3; in the experiment with Human alphaherpesvirus 1; in experiment [1]) was inactive. Further, the outcome with BGC-823 and in the experiment with HCT-8 was inactive.
Consider `O=Cc1c[nH]c2ccccc12`, for which the outcome (in the experiment on A549; in the experiment with MCF7; in the experiment on Bel-7402; in the experiment with KETR3; in the experiment with Human alphaherpesvirus 1; in experiment [1]) was inactive. The result in the experiment with BGC-823 and with HCT-8 was inactive.
Take `O=c1cc(-c2ccc(CO)o2)c2cc(O)ccc2[nH]1`: the outcome (in the experiment with A549; in the experiment with MCF7; in the experiment on Bel-7402; with KETR3; with Human alphaherpesvirus 1; in experiment [1]) was inactive. Besides, the outcome with BGC-823 and in the experiment with HCT-8 was inactive.
As to `COc1cccc2c1[C@@](O)(CC(N)=O)C(=O)N2`, the result (in the experiment with A549; with MCF7; with Bel-7402; in the experiment on KETR3; in the experiment with Human alphaherpesvirus 1; in experiment [1]) was inactive. Moreover, the outcome in the experiment on BGC-823 and in the experiment with HCT-8 was inactive.
`NC(=O)C[C@@]1(O)C(=O)Nc2ccccc21`: the outcome (in the experiment with A549; in the experiment on MCF7; with Bel-7402; in the experiment on KETR3; in the experiment with Human alphaherpesvirus 1; in experiment [1]) was inactive. Moreover, the result with BGC-823 and in the experiment with HCT-8 was inactive.
